Key:
[1] = test system: BrdU-positive cells in the sub-granular zone (SGZ) of the hippocampus; test: Hippocampal neurogenesis (BrdU-positive cells) after 3-day treatment; assay type: in vivo, rat; details: RS 67333 1.5 mg/kg/day, 3 days
Method: A and B: Photomicrographs (magnification: 10× and 100× for the small rectangles) representative of the control and RS 67333 group, respectively. Clusters of positive cells were found in the presence of RS 67333 (small rectangles). RS 67333 was administered through the use of osmotic minipumps, inserted subcutaneously in the region of the back. Rats received intraperitoneal injections of BrdU at the dose of 50 mg/kg twice daily (8 h interval), starting from the day of minipump insertion until day 2 post-surgery.
Drugs and Chemicals. The following compounds were used: GR 125487 sulphamate, prucalopride monohydrochloride, citalopram hydrobromide (gifts from Glaxo, Janssen and Lundbeck laboratories, respectively), RS 67333 hydrochloride (Tocris Cookson Inc., Ellisville, Mo., USA), WAY 100635 hydrochloride (Research Biochemicals, Natick, Mass., USA), pCPA methyl ester hydrochloride, BrdU (Sigma-Aldrich Canada, Oakville, Ontario, Canada). All compounds were diluted in distilled water. All drug dosages refer to the free base. For chronic treatments, prucalopride (2.5 mg/kg/day), RS 67333 (1.5 mg/kg/day) or the vehicle were delivered through osmotic minipumps (Alza, Palo Alto, Calif., USA), inserted subcutaneously in the region of the back under short-duration (≦5 min) halothane anesthesia. […]

DRN 5-HT neurons = test: Reversal by acute prucalopride of the inhibition of DRN 5-HT neuron firing rate induced by i.v. SSRIs; assay type: in vivo, rat
Text: FIGS. 6A and 6B illustrate the effect of prucalopride on the inhibition of 5-HT neuronal firing rate induced by SSRIs fluxoamine and citalopram.
In FIGS. 6A and 6B, the firing activity of the 5-HT neuron is suppressed following the acute intravenous administration of the antidepressant SSRIs fluvoxamine and citalopram. This suppression of the firing activity is due to the activation of the 5-HT1A autoreceptors, subsequent to the increase of the concentration of endogenous 5-HT, following the blockade of the 5-HT reuptake sites.

[2] = Horizontal locomotion in activity chambers; details: i.p. 30 min before testing; prucalopride 2.5 mg/kg, RS 67333 1.5 mg/kg
Method: All data are expressed as mean±S.E.M. of eight animals per group, and are from an observation of 4 min duration. Rats experienced a pre-test session (15 min) 24 h before the test session. The 5-HT4 agonists were administered 30 min before the test session. […] Data are expressed as mean±S.E.M. of eight animals per group, and are from an observation of 10 min duration. The 5-HT4 agonists were administered 30 min before testing. *p<0.05, **p<0.01 vs the vehicle, Dunnett's test;
Thirty min after drug administration, rats were placed in activity cages in whom photoelectric cells were inserted allowing recordings of locomotor activity, i.e. quantification of the total number of activity counts (photocell beam breaks) during 10 min. session.

Row | effect on rat locomotion (activity counts, 10 min) [2] [%] | SMILES | size of clusters of BrdU-positive cells [1] [clones] | density of BrdU-positive cells in the SGZ ([1]; control 44.9±17.2) [per mm^2] | share of 5-HT neurons in which the suppression is reversed (DRN 5-HT neurons; acute prucalopride) | effect of prucalopride on SSRI-induced suppression of 5-HT neuron firing (DRN 5-HT neurons; acute prucalopride after fluvoxamine or citalopram i.v.)
1 |  | CCCCN1CCC(CCC(=O)c2cc(Cl)c(N)cc2OC)CC1 [RS 67333, 1-(4-amino-5-chloro-2-methoxyphenyl)-3-(1-n-burtl-4-piperidinyl)-1-propanone] | 6 to 10 | 200.2±44.9 |  | 
2 | 78 | COCCCN1CCC(NC(=O)c2cc(Cl)c(N)c3c2OCC3)CC1 [prucalopride] |  |  | about one-half | partially reverse

From patent US20090170899A1, “Stimulators of 5-HT4 receptors and uses thereof” (priority 2004, published 2009)
